From patent US5643601A, “Phospholipid-and fluorocarbon-containing cosmetic” (Lancaster Group AG, priority 1992, dated 1997)
Like-named read-outs stand apart in the source and are kept apart here.

Tests used:
[1] = Vapour pressure of fluorocarbons (Table 1); assay type: physicochemical
Text: (§2) Some selected fluorocarbons and their O2 solubility, their vapour pressure and their critical solubility temperature are shown in Table 1.

[2] = O2 solubility of fluorocarbons (Table 1); assay type: physicochemical
Text: as §2

[3] = Critical solubility temperature (CST) of fluorocarbons in n-hexane
Text: (§1) The fluorocarbons can be selected for O2 solubility, partial vapour pressure and lipid solubility according to the specific intended application. The critical solubility temperature of the fluorocarbons (CST) in n-hexane correlates with their solubility in lipids, e.g. cell membranes, and is thus a measure of the rate of release through the skin. […] It is thus possible by mixing various fluorocarbons to set defined CST values which are often not realisable by means of individual compounds.
Starting from these values, the desired characteristics for the penetration of the skin with the aid of a cosmetic composition can be selected for mixtures of fluorocarbons.

skin [4] = assay: Release of fluorocarbons through the skin
Text: as §1

skin [5] = conditions: in words; cited from earlier work

Vapour Pressure P37° C. [1] | CST (critical solubility temperature) [3] | rate of release through the skin / half-life of release (skin [4]) | Compound | Vapour Pressure P37° C. ([1]; 37° C.) | O2 solubility [2] | CST (critical solubility temperature) ([3]; in n-hexane) | rate of release through the skin / half-life of release (skin [4]; in words, correlated with CST) | skin irritation / side effects (skin [5])
 |  |  | FC(F)(F)C(F)(F)C(F)(F)C(F)(F)C=CC(F)(F)C(F)(F)C(F)(F)C(F)(F)F [Bis-F(butyl)ethene] | 12.6 mm Hg | 50 ml of O2 /100 ml of Fc | 22.5 °C |  | 
 |  |  | FC1(F)OC(F)(F)C(F)(F)N(C(F)(F)C2(F)C(F)(F)C(F)(F)C(F)(F)C(F)(F)C2(F)F)C1(F)F [F-cyclohexylmethyl-morpholine] | 4 mm Hg | 42 ml of O2 /100 ml of Fc | 38.5 °C |  | 
 |  |  | FC(F)(F)C(F)(F)C(F)(F)C(F)(F)C(F)(F)C(F)(F)OC(F)(F)C(F)(F)C(F)(F)C(F)(F)C(F)(F)C(F)(F)F [F-dihexyl ether] | 2 mm Hg | 45 ml of O2 /100 ml of Fc | 59 °C |  | 
414 mm Hg |  |  | FC(F)(F)C(F)(F)C(F)(F)C(F)(F)C(F)(F)C(F)(F)F [F-hexane] |  | 58 ml of O2 /100 ml of Fc |  |  | 
 |  |  | FC(F)(F)C1(F)C(F)(F)C(F)(F)C(F)(F)C(F)(F)C1(F)F [F-methylcyclohexane] | 180 mm Hg | 57 ml of O2 /100 ml of Fc | 8.2 °C |  | 
 |  |  | FC(F)(F)C(F)(F)C(F)(F)C(F)(F)N(C(F)(F)C(F)(F)C(F)(F)C(F)(F)F)C(F)(F)C(F)(F)C(F)(F)C(F)(F)F [F-tributylamine] | 1 mm Hg | 40 ml of O2 /100 ml of Fc | 59 °C | high half-life of release | 
 | 43 °C |  | FC(F)(F)C(F)(F)C(F)(F)N(C(F)(F)C(F)(F)C(F)(F)F)C(F)(F)C(F)(F)C(F)(F)F [F-tripropylamine] | 18.5 mm Hg | 45 ml of O2 /100 ml of Fc |  |  | 
 |  |  | FC(F)(F)C(F)(F)C(F)(F)C(F)(F)C1(F)OC(F)(F)C(F)(F)C1(F)F (stereo not drawn) [Perfluorobutyl-tetrahydrofuran] | 51 mm Hg | 52 ml of O2 /100 ml of Fc | 29 °C |  | 
 | 22 °C | released relatively rapidly | FC1(F)C(F)(F)C(F)(F)C2(F)C(F)(F)C(F)(F)C(F)(F)C(F)(F)C2(F)C1(F)F (stereo not drawn) [Perfluorodecalin] | 12.5 mm Hg | 40 ml of O2 /100 ml of Fc |  |  | 
 | -24.5 °C | released relatively rapidly | FC(F)(F)C(F)(F)C(F)(F)C(F)(F)C(F)(F)C(F)(F)C(F)(F)C(F)(F)Br [Perfluorooctyl bromide] | 14 mm Hg | 50 ml of O2 /100 ml of Fc |  |  | 
 |  |  | OO [hydrogen peroxide] |  |  |  |  | considerable side effects such as the skin irritations
